# Results as given in publication PMC4550830, “Pheromone binding proteins enhance the sensitivity of olfactory receptors to sex pheromones in Chilo suppressalis” (Scientific Reports, 2015).
# Values joined by “and” are separate entries in the source; they are usually repeats but may differ in a detail not shown here. Equal values may be shown once.
# Columns and labels:
# CsupPBP3 = target: T1, CsupPBP3 (Chilo suppressalis, UniProt F6K0S3); assay: Fluorescence binding assay (1-NPN titration and competitive displacement), CsupPBP3; settings: 2 μM protein in 50 mM Tris-HCl titrated with 1-NPN, triplicates
# T1 sequence (F6K0S3 22-166): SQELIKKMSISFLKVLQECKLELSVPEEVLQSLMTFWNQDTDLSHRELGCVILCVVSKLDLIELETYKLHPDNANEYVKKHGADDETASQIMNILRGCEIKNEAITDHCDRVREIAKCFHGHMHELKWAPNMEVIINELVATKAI
# Method: In order to measure the affinity of CsupPBP1–4 to the fluorescent probe N-phenyl-1-naphthylamine (1-NPN), a 2 μM solution of each CsupPBP in 50 mM Tris-HCl buffer was titrated with 1 mM 1-NPN in methanol to final concentrations of 2–16 μM. The affinities of CsupPBP1–4 to other ligands were measured in competitive binding assays, where a 2 μM solution of both CsupPBPs and 1-NPN was titrated with 1 mM methanol solutions of each lignd to final concentrations of 0.2–1.6 μM. The Prism software was used to analyse the data and plot the binding curves. The ability of ligand to compete with 1-NPN was measured in competitive binding assays, where a mixture of the protein and 1-NPN, both at the concentration of 2 μM were titrated with 0.1 mM or 1 mM solutions of each ligand to the final concentrations reported in the figures. Fluorescence intensities are reported as percent of the values measured in the absence of competitors. All experiments were performed in triplicates and mean values and standard errors are reported. Binding constants of competitors were calculated from the corresponding IC50 values using the equation: KD = [IC50]/1 + [1-NPN]/K1-NPN, [1-NPN] being the free concentration of 1-NPN and K1-NPN being the dissociation constant of the complex Protein/1-NPN.
# CsupPR6/CsupOrco = assay: Two-electrode voltage clamp recording from Xenopus oocytes coexpressing CsupPR6/CsupOrco; type: cell-based, Chilo suppressalis; settings: ligand 10^−4 mol/L; for Effect of PBPs on the response of PR6: each of the four CsupPBPs versus DMSO alone
# Text: (§1) The ORFs encoding CsupPRs were amplified and cloned into pT7Ts vector using specific primers (Supplementary Table S1). The cRNAs of all CsupPRs were synthesized using mMESSAGE Mmachine T7 kit (Ambion, Austin, TX).
# (§2) The entire coding region of each CsupOR was sub-cloned into the XhoI/NotI sites of pT7Ts vector (Invitrogen) (Kozak sequence added before the cutting site in forward primer). The cRNAs of all CsupPRs were synthesized using mMESSAGE Mmachine T7 kit (Ambion, Austin, TX).
# (§3) Electrophysiological recordings were performed according to previously reported protocols. Mature healthy oocytes (stage V–VII) (Nasco, Salida, California) were treated with collagenase I(GIBCO, Carlsbad, CA) in washing buffer (96 mM NaCl, 2 mM KCl, 5 mM MgCl2, and 5 mM HEPES [pH = 7.6]) for about 1 h at room temperature. After being cultured overnight at 18 °C, oocytes were microinjected with 27.6 ng CsupORs cRNA and 27.6 ng CsupOrco cRNA. After injection, oocytes were incubated for 4–7 days at 18 °C in 1X Ringer’s solution (96 mM NaCl, 2 mM KCl, 5 mM MgCl2, 0.8 mM CaCl2, and 5 mM HEPES [pH = 7.6]) supplemented with 5% dialysed horse serum, […].
# (§4) Whole-cell currents were recorded from the injected Xenopus oocytes with a two-electrode voltage clamp. Odorant induced currents were recorded with an OC-725C oocyte clamp (Warner Instruments, Hamden, CT) at a holding potential of […]. All experiments on PR responses were performed in six replicates, those involving interactions with PBPs in four replicates.
# (§5) Data acquisition and analyses were carried out with Digidata 1440A and pCLAMP 10.2 software (Axon Instruments Inc., Union City, CA). Statistical comparison of responses of oocytes to the tested ligands and dose-response data were analysed by GraphPad Prism 5.0 (GraphPad Software Inc., San Diego, CA).
# (§6) Tested pheromone components and analogs were purchased from Nimrod Inc (Changzhou, China, purify 96%). they were dissolved in dimethyl sulfoxide (DMSO) to 1 M Stock solutions and stored at −20 °C. Before testing, the stock solutions were diluted with 1 X Ringer’s buffer (96 mM NaCl, 2 mM KCl, 5 mM MgCl2, 0.8 mM CaCl2 and 5 mM HEPES [pH = 7.6]).
# CsupPR4/CsupOrco = assay: Two-electrode voltage clamp recording from Xenopus oocytes coexpressing CsupPR4/CsupOrco; type: cell-based, Chilo suppressalis
# Text: as §1, §2
# (§7) Electrophysiological recordings were performed according to previously reported protocols. Mature healthy oocytes (stage V–VII) (Nasco, Salida, California) were treated with collagenase I(GIBCO, Carlsbad, CA) in washing buffer (96 mM NaCl, 2 mM KCl, 5 mM MgCl2, and 5 mM HEPES [pH = 7.6]) for about 1 h at room temperature. […]
# (§8) Whole-cell currents were recorded from the injected Xenopus oocytes with a two-electrode voltage clamp. Odorant induced currents were recorded with an OC-725C oocyte clamp (Warner Instruments, Hamden, CT) at a holding potential of […]. […]
# (§9) Data acquisition and analyses were carried out with Digidata 1440A and pCLAMP 10.2 software (Axon Instruments Inc., Union City, CA). Statistical comparison of responses of oocytes to the tested ligands and dose-response data were analysed by GraphPad Prism 5.0 (GraphPad Software Inc., San Diego, CA). […]
# CsupPR2/CsupOrco = assay: Two-electrode voltage clamp recording from Xenopus oocytes coexpressing CsupPR2/CsupOrco; type: cell-based, Chilo suppressalis
# Text: as §1, §2, §3, §4, §5, §6
# CsupPR1/CsupOrco = assay: Two-electrode voltage clamp recording from Xenopus oocytes coexpressing CsupPR1/CsupOrco; type: cell-based, Chilo suppressalis; settings: ligand 10^−4 mol/L, each of the four CsupPBPs versus DMSO alone
# Text: as §1, §2, §7, §8, §9
# [1] = ligand 10^−4 mol/L, each of the four CsupPBPs versus receptor alone
smiles,measurement,setting,value
"c1ccc(Nc2cccc3ccccc23)cc1 [1-NPN, N-phenyl-1-naphthylamine]",Kd,CsupPBP3,~3 µM and 3.1 µM
CCCC/C=C\CCCCCCCCO [Z9–14:OH],Effect of PBPs on the response of PR6,CsupPR6/CsupOrco,inhibitory effect
same,Effect of PBPs on the response of PR6,CsupPR6/CsupOrco; listed as 4,reduction of the signal
same,Effect of PBPs on the response of PR4,CsupPR4/CsupOrco; [1],inhibitory effect
same,Effect of PBPs on the response of PR2,CsupPR2/CsupOrco; [1],inhibitory effect
same,Effect of PBPs on the response of PR1,CsupPR1/CsupOrco,inhibitory effect
"CCCCCC/C=C\CCCCCCCC=O [Z9–16:Ald, (Z)-9-hexadecenal]",Inward current response of PR4,"CsupPR4/CsupOrco; ligand 0.1 mM, no PBP, n = 6",specifically tuned
"CCCC/C=C\CCCCCCCCCC=O [Z11–16:Ald, (Z)-11-hexadecenal]",Response of PR6 in the presence of PBP4 compared with other PBPs,CsupPR6/CsupOrco; PBP4,more strongly activated
same,Effect of PBPs on the response of PR6,CsupPR6/CsupOrco,increased
same,Increase in sensitivity (EC50) of PR2 in the presence of PBP1,CsupPR2/CsupOrco; dose-response with versus without PBP1,to minor extents
same,Increase in sensitivity (EC50) of PR2 in the presence of PBP2,CsupPR2/CsupOrco; dose-response with versus without PBP2,more than one order of magnitude
same,Increase in sensitivity (EC50) of PR2 in the presence of PBP3,CsupPR2/CsupOrco; dose-response with versus without PBP3,to minor extents
same,Change in sensitivity (EC50) of PR2 in the presence of PBP4,CsupPR2/CsupOrco; dose-response with versus without PBP4,not affected
